“Also recorded” adds a separate entry of the source.
Columns and labels:
[1] = test system: endometrial cancer cells; experiment: Growth/killing of endometrial cancer cells; format: cell-based; settings: dose-dependent
Procedure: (§1) Proliferation of adherent cells was determined on the IncuCyte live-cell imaging system (Essen BioScience). Cells were seeded on clear bottom 96 well plates at a seeding density of 2000 cells/well. Cells were allowed to attach overnight after which the medium was replaced with fresh medium containing serial dilutions (2×) of the compound or DMSO control. Percent confluence was calculated by the IncuCyte software from four different images per well from at least three replicate wells. For non-adherent cells, the 96-well plates were coated with poly-L-lysine before seeding to facilitate cell adhesion. At the end of the assay, dose-dependent cell viability was determined by staining the cells with PrestoBlue (Invitrogen, A13261) as per manufacturer's instructions and IC50 was calculated (FIG. 10).
Referring to FIG. 10A, AT-301 kills a variety of cancer cells (brain tumors, rhabdomyosarcoma, nonsmall cell lung cancer, leukemia, and Ewing's Sarcoma. We also tested whether AT-301 can kill cells representing gynecological cancers (ovarian and endometrial cancer). As shown in FIG. 10B-C, AT-301 kills a variety of ovarian and endometrial cancer cells.

[2] = test system: BAF complex in ES3 cells; experiment: BAF complex assembly, size-exclusion chromatography of nuclear lysates and immunoblot; format: cell-based; settings: 7.5 μM AT-301
Excerpt: (§2) FIG. 12A-D show representative data illustrating that the assembly of BAF complex is perturbed by AT-301 inhibitor without perturbing oncogenic fusion protein levels. Referring to FIG. 12A and FIG. 12B, immunoblots of RH41 (FIG. 12A) and ES7 (FIG. 12B) cells after 4 and 12 hrs of treatment with AT-301 or DMSO. FOXO1 and FLI1 expression remains unchanged upon AT-301 treatment. Referring to FIG. 12C and FIG. 12D, gel filtration chromatography of ES3 (FIG. 12C) and RH41 (FIG. 12D) cell nuclear lysates after BAF-X-1 treatment are shown. Lysates were passed through a Sephacryl S-400 HR column and every fourth fraction was immuno-blotted for the proteins indicated with fraction numbers above the lanes.
(§3) Next, whether AT-301 can perturb the assembly of BAF complex was evaluated using size-exclusion chromatography (SEC) method. Cells were cultured on 15 cm petri-dishes. Nuclei were extracted and lysed. A HiPrep 16/60 Sephacryl S-400 HR column (GE) was equilibrated with a running buffer and 4 mg of the lysate was loaded on to the column. Fractions of 1 mL were eluted at an elution rate of 0.8 mL/min. Eluted proteins were analyzed by concentrating and immunoblotting every fourth fraction.

[3] = test system: BAF complex in RH4 cells; experiment: as above; format: cell-based; settings: 7.5 μM AT-301
Excerpt: as §2, §3

[4] = test system: ES3 cells; experiment: Live imaging of ES3 cells; format: cell-based
Procedure: In vivo live imaging of ES3 cells in the presence of AT-301 (IC50˜5 μM).
(§4) Briefly, human SMARCA2 was purified, and a high-throughput screen (HTS) of 40,000 compounds was conducted. […] In brief, cells were grown in RPMI media supplemented with 10% Fetal bovine serum (FBS), 1× penicillin, and streptomycin antibiotics. Cells were placed in an incubator with 5% C02 and 50% humidity. When cells reached 90% confluency, cells were harvested, washed twice in 1×PBS, counted using trypan blue exclusion method. Then cells were seeded in 96-well plates (duplicates, n=2) at the density of 20,000 cells per well. Allowed them to attach to the bottom of the well for 1 to 2 hrs and treated with different concentration of AT-301 compound starting at highest concentration of 10 micromolar to serial dilution of the compound to the lowest concentration of 0.039 micromolar. Cells treated with only DMSO were also included as negative control. Cells were monitored for 72 hrs. by live cell imaging method (Incucyte S3) taking images every two hours. The confluency was determined and plotted against time (hours) by using Prism software.

[5] = test system: BT40; experiment: Cell proliferation assay and IC50 measurement (PrestoBlue); format: cell-based; settings: PrestoBlue cell viability
Procedure: (§5) FIG. 10A-C show representative data illustrating that AT-301 kills Ewing's, RMS, GBM, AML, and other cancer cells. Cell lines were treated with serial dilutions (2×) of AT-301, and IC50 values of each cell line were determined using PrestoBlue dye for cell viability following manufacturer's protocol (Invitrogen, A13261). See also Table 3.
(§6) Jurkat, Molt-4, RH4, RH30, BT40, GBM2, ES3, ES6, ES7, HC827, H1975, H2030 cells: RPMI 1640, 10% FBS, Penicillin (100 units/mL) and streptomycin (100 μg/mL) in the presence of 5% CO2.
as §1

[6] = test system: H1975; experiment: as above; format: cell-based; settings: Homo sapiens, NCI-H1975, PrestoBlue cell viability
Procedure: as §5, §6, §1

[7] = test system: Molt4; experiment: as above; format: cell-based; settings: Homo sapiens, MOLT-4, PrestoBlue cell viability
Procedure: as §5, §6, §1

[8] = test system: Jurkat; experiment: as above; format: cell-based; settings: Homo sapiens, PrestoBlue cell viability
Procedure: as §5, §6, §1

[9] = test system: HCC827; experiment: as above; format: cell-based; settings: Homo sapiens, PrestoBlue cell viability
Procedure: as §5, §6, §1

[10] = biological target: T1, SMARCA2 (Homo sapiens, UniProt P51531); experiment: ATPase activity of SMARCA2 on different DNA/chromatin substrates (enzyme-coupled phosphate release assay); format: biochemical; settings: 5 μM AT-301; 147 bp nucleosomal DNA, 29 bp duplex DNA, NCP
T1 construct: The SMARCA2-1 gene (amino acids 437-1493) encompassing all domains; made in house; host or cells: expiSF9 insect cells (baculovirus, pFASTBac1)
Excerpt: FIG. 9A-C show representative data illustrating that AT-301 attenuates the ATPase activity of SMARCA2 in different DNA/chromatin substrates.
In brief, the disclosed ATPase assay is based on the inorganic phosphate (Pi) release from the enzymatic reaction, wherein the substrate 2-amino-6-mercapto-7-methylpurine ribose (MESG) is converted by purine phosphorylase (PNP) to ribose 1-phosphate and 2-amino-6-mercapto-7-methylpurine. This conversion changes the spectrophotometric shift of MSEG absorbance from 330 nm to 360 nm (FIG. 1C and FIG. 1D).
SMARCA2 can interact with nucleosomal, extra nucleosomal DNA, and a DNA wrapped around the histone octamer. These substrates were prepared, and the ATPase activity of SMARCA2 on these substrates were evaluated in the presence and absence of AT-301. Specifically, as shown in FIG. 9A-C, mononucleosome core particles (NCP) were reconstituted from purified histone octamer and 147 bp widom nucleosomal DNA. An electromobility shift assay (EMSA) was used to monitor the direct binding of SMARCA2 to NCP. […] The ATPase activity of SMARCA2 was also evaluated on alternative substrates (a 29-mer duplex DNA, 147 bp nucleosomal DNA, and reconstituted NCP).

[11] = biological target: T1, SMARCA2; experiment: Secondary ATPase assay; format: biochemical
Procedure: Exemplary compounds were evaluated for their ability to inhibit human SMARCA2 in ATPase assays as detailed in Table 2 below. Dose response curves for compound nos.

[12] = test system: alveolar Rhabdomyosarcoma cell lines; experiment: Growth of Rhabdomyosarcoma cell lines, live cell imaging confluency; format: cell-based
Procedure: as §4
Assays were performed as detailed above for FIG. 4A-E.

T1 sequence (P51531 437-1493): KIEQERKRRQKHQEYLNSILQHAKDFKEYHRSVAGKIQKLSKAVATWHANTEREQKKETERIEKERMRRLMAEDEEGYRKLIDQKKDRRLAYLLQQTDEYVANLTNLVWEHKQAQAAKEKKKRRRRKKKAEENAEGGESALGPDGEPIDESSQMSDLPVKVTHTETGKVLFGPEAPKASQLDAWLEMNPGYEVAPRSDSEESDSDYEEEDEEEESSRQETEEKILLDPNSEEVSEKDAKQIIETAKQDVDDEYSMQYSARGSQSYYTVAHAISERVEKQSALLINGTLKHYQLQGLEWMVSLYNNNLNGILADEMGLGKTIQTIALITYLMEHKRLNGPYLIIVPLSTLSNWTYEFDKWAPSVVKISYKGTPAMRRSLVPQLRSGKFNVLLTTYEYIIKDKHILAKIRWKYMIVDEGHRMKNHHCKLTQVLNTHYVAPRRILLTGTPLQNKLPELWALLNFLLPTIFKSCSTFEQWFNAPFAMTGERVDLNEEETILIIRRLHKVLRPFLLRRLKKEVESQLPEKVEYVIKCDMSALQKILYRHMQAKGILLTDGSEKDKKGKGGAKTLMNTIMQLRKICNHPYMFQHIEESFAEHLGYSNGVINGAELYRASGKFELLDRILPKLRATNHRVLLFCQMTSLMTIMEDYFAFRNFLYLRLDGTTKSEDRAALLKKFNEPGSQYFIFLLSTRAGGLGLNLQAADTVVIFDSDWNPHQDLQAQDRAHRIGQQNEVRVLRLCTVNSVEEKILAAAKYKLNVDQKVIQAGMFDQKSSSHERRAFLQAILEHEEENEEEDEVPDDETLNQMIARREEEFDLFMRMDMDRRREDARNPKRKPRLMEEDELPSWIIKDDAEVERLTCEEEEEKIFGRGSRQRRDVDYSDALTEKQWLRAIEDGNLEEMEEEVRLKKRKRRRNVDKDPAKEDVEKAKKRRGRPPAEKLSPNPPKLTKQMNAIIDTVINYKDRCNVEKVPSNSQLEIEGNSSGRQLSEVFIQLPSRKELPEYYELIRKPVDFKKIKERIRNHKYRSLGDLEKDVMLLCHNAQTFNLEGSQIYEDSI

IC50 [4]: ~5 µM
IC50 [5]: 3.49 µM
IC50 [6]: 5.31 µM
IC50 [7]: 4.39 µM
IC50 [8]: 2.81 µM
IC50 [9]: 5.21 µM
IC50 [11]: ~5 µM
SMILES: Clc1ccc(CNc2nc(NC3CCCC3)nc3ccccc23)cc1Cl [AT-301, N^2-cyclopentyl-N^4-(3,4-dichlorobenzyl)quinazoline-2,4-diamine]
Growth/killing of endometrial cancer cells [1]: kills; also recorded: inhibits the growth
Assembly of BAF complexes [2]: perturbed assembly
Assembly of BAF complexes [3]: perturbed assembly
ATPase activity of SMARCA2 on different substrates [10]: uniformly reduced; also recorded: significantly attenuated
Growth of Rhabdomyosarcoma cell lines ([12]; 2 other lines): moderately attenuated the growth
Growth of alveolar Rhabdomyosarcoma cell lines ([12]; 4 alveolar Rhabdomyosarcoma cell lines): attenuate the growth; also recorded: strongly attenuated the growth
